These results are taken from US20160298129A1, “ALS INHIBITOR HERBICIDE TOLERANT MUTANT PLANTS” (BAYER CROPSCIENCE NV, priority 2013, published 2016).

Molecules are shown by their SMILES. A value given as a limit tells only on which side of the number the result lay.

A word on the IC50: it is the concentration that gives 50% inhibition. Read a low IC50 as inhibition by little substance.

One assay addresses AHAS P197S (Arabidopsis thaliana, UniProt P17597, E575Q/P197S). It is filed as biochemical. Here is the method:
(§1) Bacteria are grown at 37° C. in LB-medium containing 100 mg/l carbenicillin and 25 mg/l canamycin, induced with 1 mM isopropyl-β-D-thiogalactopyranoside at an OD600 of 0.6, cultivated for 16 hours at 18° C. and harvested by, e.g., centrifugation. Bacterial pellets are resuspended in 100 mM sodium phosphate buffer pH 7.0 containing 0.1 mM thiamine-pyrophosphate, 1 mM MgCl2, and 1 μM FAD at a concentration of 1 gram wet weight per 25 ml of buffer and disrupted by, e.g., sonification. The crude protein extract obtained after centrifugation is used for ALS activity measurements.
(§2) ALS protein can be extracted from leaves or tissue cultures, such as B. napus or B. juncea leaves, or B. napus or B. juncea tissue cultures as described by Ray (Plant Physiol, 1984, 75:827-831). An ALS assays can be carried out in 96-well microtiter plates using a modification of the procedure described by Ray (1984): The reaction mixture contains 20 mM potassium phosphate buffer pH 7.0, 20 mM sodium pyruvate, 0.45 mM thiamine-pyrophosphate, 0.45 mM MgCl2, 9 μM FAD. ALS enzyme and various concentrations of ALS inhibitors can be mixed in a final volume of 90 μl Assays can be initiated by adding enzyme and the assays can be terminated after 75 min incubation at 30° C. by the addition of 40 μl 0.5 M H2SO4.

In a further assay the target is AHAS W574L (Arabidopsis thaliana, UniProt P17597, E575Q/W574L). It is filed as biochemical. On the procedure:
as §1, §2

A further assay concerns the target AHAS D376E (Arabidopsis thaliana, UniProt P17597, D376E/E575Q). Nature of the assay: biochemical. The note with it: for Resistance Factor / pI50: AHAS D376E. On the procedure: as §1, §2
A further assay addresses AHAS D376E-W574L (Arabidopsis thaliana, UniProt P17597, D376E/E575Q/W574L). Nature of the assay: biochemical. The note with it: for Resistance Factor / pI50: AHAS D376E-W574L. On the procedure: as §1, §2
The next assay has as its target AHAS P197S-D376E (Arabidopsis thaliana, UniProt P17597, D376E/E575Q/P197S). Nature of the assay: biochemical. The settings on record: for Resistance Factor / pI50: AHAS P197S-D376E. Here is the method: as §1, §2
Another assay has as its target AHAS P197S-D376E-W574L (Arabidopsis thaliana, UniProt P17597, D376E/E575Q/P197S/W574L). The assay is described as follows: biochemical. The note with it: for Resistance Factor / pI50: AHAS P197S-D376E-W574L. On the procedure:
as §1, §2

The next assay addresses AHAS P197S-W574L (Arabidopsis thaliana, UniProt P17597, E575Q/P197S/W574L). The assay is described as follows: biochemical. The settings on record: for Resistance Factor / pI50: AHAS P197S-W574L. Here is the method:
as §1, §2

Assay [1] addresses AHAS WT (Arabidopsis thaliana, UniProt P17597, E575Q). Nature of the assay: biochemical. The settings on record: AHAS WT. Here is the method: as §1, §2
The target of assay [2] is AHAS WT (Arabidopsis thaliana, UniProt P17597). The assay is described as follows: biochemical. On the procedure: as §1, §2
Sequence of AHAS WT (Arabidopsis thaliana, UniProt P17597) (P17597 56-670 E575Q): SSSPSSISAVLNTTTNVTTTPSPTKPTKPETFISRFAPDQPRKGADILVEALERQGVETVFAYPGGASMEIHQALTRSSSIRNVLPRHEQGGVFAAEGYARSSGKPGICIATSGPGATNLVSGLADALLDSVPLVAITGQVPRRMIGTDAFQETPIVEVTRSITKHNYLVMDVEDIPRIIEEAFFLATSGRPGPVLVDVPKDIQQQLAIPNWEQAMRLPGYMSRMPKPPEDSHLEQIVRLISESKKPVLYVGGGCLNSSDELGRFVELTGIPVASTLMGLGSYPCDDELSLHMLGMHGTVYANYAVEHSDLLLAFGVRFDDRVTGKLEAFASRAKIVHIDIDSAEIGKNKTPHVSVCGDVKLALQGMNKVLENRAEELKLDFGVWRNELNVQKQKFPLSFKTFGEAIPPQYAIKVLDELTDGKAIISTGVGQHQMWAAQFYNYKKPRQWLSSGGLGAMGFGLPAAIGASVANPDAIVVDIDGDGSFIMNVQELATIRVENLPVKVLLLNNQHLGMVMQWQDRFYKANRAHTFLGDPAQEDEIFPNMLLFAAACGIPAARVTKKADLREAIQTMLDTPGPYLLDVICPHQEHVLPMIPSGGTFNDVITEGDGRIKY
Assay [3] relates to WT tissues (hypocotyl derived callus). The assay is described as follows: Callus culture on Foramsulfuron selection medium. The format is cell-based, Brassica napus. The note with it: 250 nM in M-338 [H76] medium. On the procedure: Five day old seedlings were used for the preparation of hypocotyl segments 7-10 mm in length. Hypocotyl segments were transferred to 14 cm Petri plates containing 75 ml of M-338 [H76] callus induction medium (25 explants/plate). M-338 [H76] medium is MS salts and vitamins (Murashige and Skoog, 1962), 20 g/l sucrose, 0.5 g/l MES, 0.5 g/l adenine sulphate, 5 mg/l silver nitrate, 0.5 mg/l 2,4-D, 0.2 mg/l kinetin and solidified with 5.5 g/l agarose (pH 5.7). Dishes were sealed and cultured at 24° C. with standard light conditions (16 h/day). After 3 weeks, calli developing at the ends of the explants were transferred to fresh M-338 [H76] plates (25 calli/plate). Calli were subcultured to fresh medium every 3 weeks (larger calli cut into two pieces).
Hypocotyl derived callus (9 weeks old) was used for the selection of herbicide resistant mutants. […] Dishes were cultured at 24° C. with standard light conditions (16 h/day). After 3 weeks, the calli were divided into 2 pieces each and replated on M-338 [H76] medium containing 1.0 μM Foramsulfuron. Further increases in Foramsulfuron concentration (e.g. 1.5 μM, 2.0 μM, 2.5 μM, 3.0 μM or higher) were made each subculture until rapidly growing green (resistant) calli could clearly be identified from the brown non-resistant tissues.

Assay [4] relates to wild-type (WT) oilseed rape. The assay is described as follows: Field herbicide tolerance, visible phytotoxicity. It is filed as in vivo, Brassica napus. The note with it: gai/ha: imazamox 40, bispyribac-sodium 50, propoxycarbazone-sodium 70, mesosulfuron-methyl 60, pyroxsulam 12.5 + cloquintocet-mexyl 37.5, each + rapeseed oil methylated 366.5.
For assay [5], the system named is oilseed rape homozygous for HETO133 and HETO134 (133-134). The assay is described as follows: Field herbicide tolerance, visible phytotoxicity (ALS I W574L, ALS III W574L). The note with it: gai/ha: imazamox 40, bispyribac-sodium 50, propoxycarbazone-sodium 70, mesosulfuron-methyl 60, pyroxsulam 12.5 + cloquintocet-mexyl 37.5, each + rapeseed oil methylated 366.5. It is filed as in vivo, Brassica napus. An excerpt: (§3) Seeds of spring oilseed rape homozygous for HETO139 and HETO134 were sown in a field according to typical practical agricultural methods together with seeds homozygous for HETO134 and HETO133 (comprising a W574L mutation on ALS III, which were obtained in the same way as HETO134), and with seeds homozygous for HETO134 and HETO132 (comprising a P197S and a W574L mutation on ALS III, which were obtained in essentially the same way as HETO139). Several ALS inhibitor herbicides were applied to the oilseed rape plants by using specific spray equipment for small plot applications.

The subject of assay [6] is oilseed rape homozygous for HETO132 and HETO134 (132-134). The assay is described as follows: Field herbicide tolerance, visible phytotoxicity (ALS I W574L, ALS III P197S-W574L). The format is in vivo, Brassica napus. The note with it: gai/ha: imazamox 40, bispyribac-sodium 50, propoxycarbazone-sodium 70, mesosulfuron-methyl 60, pyroxsulam 12.5 + cloquintocet-mexyl 37.5, each + rapeseed oil methylated 366.5.
Description: as §3

Assay [7] deals with oilseed rape homozygous for HETO139 and HETO134 (139-134). The assay is described as follows: Field herbicide tolerance, visible phytotoxicity (ALS I W574L, ALS III P197S-D376E). The note with it: gai/ha: imazamox 40, bispyribac-sodium 50, propoxycarbazone-sodium 70, mesosulfuron-methyl 60, pyroxsulam 12.5 + cloquintocet-mexyl 37.5, each + rapeseed oil methylated 366.5. The format is in vivo, Brassica napus.
Description: as §3

Sequence of AHAS D376E (P17597 56-670 D376E/E575Q): as the sequence (P17597 56-670 E575Q) above, with D321E counted along it
Sequence of AHAS W574L (P17597 56-670 W574L/E575Q): as the sequence (P17597 56-670 E575Q) above, with W519L counted along it
Sequence of AHAS P197S-W574L (P17597 56-670 P197S/W574L/E575Q): as the sequence (P17597 56-670 E575Q) above, with P142S, W519L counted along it
Sequence of AHAS P197S-D376E-W574L (P17597 56-670 P197S/D376E/W574L/E575Q): as the sequence (P17597 56-670 E575Q) above, with P142S, D321E, W519L counted along it
Sequence of AHAS P197S (P17597 56-670 P197S/E575Q): as the sequence (P17597 56-670 E575Q) above, with P142S counted along it
Sequence of AHAS D376E-W574L (P17597 56-670 D376E/W574L/E575Q): as the sequence (P17597 56-670 E575Q) above, with D321E, W519L counted along it
Sequence of AHAS P197S-D376E (P17597 56-670 P197S/D376E/E575Q): as the sequence (P17597 56-670 E575Q) above, with P142S, D321E counted along it
Sequence of AHAS WT (Arabidopsis thaliana, UniProt P17597, E575Q) (P17597 56-670 E575Q): as the sequence (P17597 56-670 E575Q) above

Regarding `COc1ncc(F)c2nc(S(=O)(=O)Nc3c(F)cccc3F)nn12` [Florasulam, florasulam], the “Resistance Factor” value at AHAS P197S is reported as 28; on AHAS W574L, 1738; on AHAS D376E it was 55; at AHAS D376E-W574L, above 6918; on AHAS P197S-D376E, 2754; at AHAS P197S-D376E-W574L it was above 6918. Also, the “Resistance Factor” value at AHAS P197S-W574L is reported as above 6918. For the same molecule, the pI50 was 6.4 at AHAS P197S; 4.6 at AHAS W574L; 6.1 at AHAS D376E; below 4 on AHAS D376E-W574L; 4.4 on AHAS P197S-D376E; below 4 on AHAS P197S-D376E-W574L. The pI50 at AHAS P197S-W574L was below 4; at AHAS WT [1], 7.8.

In the case of `COc1cc(OC)nc(NC(=O)NS(=O)(=O)c2cc(NC=O)ccc2C(=O)N(C)C)n1` [Foramsulfuron, foramsulfuron], the “Resistance Factor” value is reported as 12 on AHAS P197S; 5888 on AHAS W574L; 3715 on AHAS D376E; above 11748 at AHAS D376E-W574L; above 11748 at AHAS P197S-D376E; above 11748 on AHAS P197S-D376E-W574L. The “Resistance Factor” value on AHAS P197S-W574L was above 11748. Moreover, the IC50 on AHAS D376E is 31.6 µM; against AHAS D376E-W574L it was above 100 µM; against AHAS P197S-D376E, above 100 µM; at AHAS P197S-D376E-W574L, above 100 µM; against AHAS P197S-W574L it was above 100 µM; against AHAS WT [2], 0.00794 µM. In addition, the “inhibition of callus tissues” value in assay [3] is given as “clearly inhibitory”.

`COc1cc(OC)n2nc(NS(=O)(=O)c3c(C(F)(F)F)ccnc3OC)nc2n1` [Pyroxsulam, pyroxsulam]: the “Resistance Factor” value on AHAS P197S is reported as 261; on AHAS W574L, above 41368; on AHAS D376E, 656; at AHAS D376E-W574L, above 41368; on AHAS P197S-D376E it was above 41368; on AHAS P197S-D376E-W574L, above 41368. Moreover, the “Resistance Factor” value on AHAS P197S-W574L is recorded as above 41368. In addition, the pI50 on AHAS P197S is 6.2; on AHAS W574L, below 4; at AHAS D376E, 5.8; on AHAS D376E-W574L, below 4; at AHAS P197S-D376E it was below 4; at AHAS P197S-D376E-W574L it was below 4. Further, the values for the pI50 at AHAS P197S-W574L and at AHAS WT [1] were below 4 and 8.6, respectively. For the same molecule, the Percentage phytotoxicity was found to be 76.7% in assay [4] (9 DAA); 98% in assay [4] (16 DAA); 98% in assay [4] (24 DAA); 13.3% in assay [5] (9 DAA); 17% in assay [5] (16 DAA); 15% in assay [5] (24 DAA). Besides, the Percentage phytotoxicity came to 13.3% in assay [6] (9 DAA); 16% in assay [6] (16 DAA); 5% in [6] (24 DAA); 10.7% in [7] (9 DAA); 16% in assay [7] (16 DAA); 10.7% in [7] (24 DAA).
